# Tests used:
# Assay in all cases: In vitro antifungal activity, microbroth dilution MIC
# Assay type in all cases: cell-based
# [1] = tested on: Aspergillus niger A. 16404; conditions: for Minimal inhibitory concentration(MIC), A. niger A. 16404: RPMI-1640, 35° C., no growth observed; for Minimal inhibitory concentration (MIC): A. niger A. 16404, RPMI-1640, 35° C.
# How it was run: (§1)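 Broth microdilution adapted from NCCLS M27, in RPMI-1640 with 0.165 M MOPS, pH 7.0. Yeast or mould inoculum at 2×10^3 CFU/ml was mixed 1:1 with DMSO-derived compound solutions (200 to 0.10 μg/ml before mixing) and incubated at 35 °C for 4 to 48 h. MIC was the concentration showing no growth.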
# [2] = tested on: Candida tropicalis A. 13803; conditions: 4 to 48 hours; for Minimal inhibitory concentration(MIC), C. tropicalis A. 13803: RPMI-1640, 35° C., no growth observed; for Minimal inhibitory concentration (MIC): C. tropicalis A. 13803, RPMI-1640, 35° C.
# How it was run: as §1
# [3] = tested on: Aspergillus furnigatus B. 19119; conditions: for Minimal inhibitory concentration(MIC), A furnigatus B. 19119: RPMI-1640, 35° C., no growth observed; for Minimal inhibitory concentration (MIC): A furnigatus B. 19119, RPMI-1640, 35° C.
# How it was run: as §1
# Candida krusei K. 11655 = conditions: 4 to 48 hours; for Minimal inhibitory concentration(MIC), C. krusei K. 11655: RPMI-1640, 35° C., no growth observed; for Minimal inhibitory concentration (MIC): C. krusei K. 11655, RPMI-1640, 35° C.
# How it was run: as §1
# [4] = tested on: Cryptococcus neoformans B. 42419; conditions: 4 to 48 hours; for Minimal inhibitory concentration(MIC), Cry. neoformans B. 42419: RPMI-1640, 35° C., no growth observed; for Minimal inhibitory concentration (MIC): Cry. neoformans B. 42419, RPMI-1640, 35° C.
# How it was run: as §1
# [5] = tested on: Candida pseudotropicalis K. 11658; conditions: 4 to 48 hours; for Minimal inhibitory concentration(MIC), C. pseudotropicalis K. 11658: RPMI-1640, 35° C., no growth observed; for Minimal inhibitory concentration (MIC): C. pseudotropicalis K. 11658, RPMI-1640, 35° C.
# How it was run: as §1
# Candida albicans C1-2 = conditions: 4 to 48 hours; for Minimal inhibitory concentration(MIC), C. albicans C1-2: RPMI-1640, 35° C., no growth observed; for Minimal inhibitory concentration (MIC): C. albicans C1-2, RPMI-1640, 35° C.
# How it was run: as §1
# [6] = tested on: Candida albicans A. 10231; conditions: 4 to 48 hours; for Minimal inhibitory concentration(MIC), C. albicans A. 10231: RPMI-1640, 35° C., no growth observed; for Minimal inhibitory concentration (MIC): C. albicans A. 10231, RPMI-1640, 35° C.
# How it was run: as §1
# [7] = tested on: Trichophyton mentagrophytes A. 9129; conditions: for Minimal inhibitory concentration(MIC), T. mentagrophytes A. 9129: RPMI-1640, 35° C., no growth observed; for Minimal inhibitory concentration (MIC): T. mentagrophytes A. 9129, RPMI-1640, 35° C.
# How it was run: as §1
# [8] = tested on: Trichophyton mentagrophytes B. 32663; conditions: for Minimal inhibitory concentration(MIC), T. mentagrophytes B. 32663: RPMI-1640, 35° C., no growth observed; for Minimal inhibitory concentration (MIC): T. mentagrophytes B. 32663, RPMI-1640, 35° C.
# How it was run: as §1
# [9] = tested on: Torulopsis glabrata B. 16205; conditions: 4 to 48 hours; for Minimal inhibitory concentration(MIC), T. glabrata B. 16205: RPMI-1640, 35° C., no growth observed; for Minimal inhibitory concentration (MIC): T. glabrata B. 16205, RPMI-1640, 35° C.
# How it was run: as §1
# [10] = tested on: Cryptococcus neoformans A. 34144; conditions: for Minimal inhibitory concentration(MIC), Cry. neoformans A. 34144: RPMI-1640, 35° C., no growth observed; for Minimal inhibitory concentration (MIC): Cry. neoformans A. 34144, RPMI-1640, 35° C.
# How it was run: as §1
# [11] = tested on: Candida parapsitosis A. 7330; conditions: 4 to 48 hours; for Minimal inhibitory concentration(MIC), C. parapsitosis A. 7330: RPMI-1640, 35° C., no growth observed; for Minimal inhibitory concentration (MIC): C. parapsitosis A. 7330, RPMI-1640, 35° C.
# How it was run: as §1
# [12] = tested on: Candida albicans IFO. 1385; conditions: 4 to 48 hours; for Minimal inhibitory concentration(MIC), C. albicans IFO. 1385: RPMI-1640, 35° C., no growth observed; for Minimal inhibitory concentration (MIC): C. albicans IFO. 1385, RPMI-1640, 35° C.
# How it was run: as §1
# [13] = tested on: Cryptococcus neoformans IFM. 40092; conditions: for Minimal inhibitory concentration(MIC), Cry. neoformans IFM. 40092: RPMI-1640, 35° C., no growth observed; for Minimal inhibitory concentration (MIC): Cry. neoformans IFM. 40092, RPMI-1640, 35° C.
# How it was run: as §1
SMILES,"Minimal inhibitory concentration(MIC), C. tropicalis A. 13803 [2] [µg/mL]","Minimal inhibitory concentration(MIC), C. krusei K. 11655 (Candida krusei K. 11655) [µg/mL]","Minimal inhibitory concentration(MIC), Cry. neoformans B. 42419 [4] [µg/mL]","Minimal inhibitory concentration(MIC), C. pseudotropicalis K. 11658 [5] [µg/mL]","Minimal inhibitory concentration(MIC), T. glabrata B. 16205 [9] [µg/mL]","Minimal inhibitory concentration(MIC), C. parapsitosis A. 7330 [11] [µg/mL]","Minimal inhibitory concentration(MIC), C. albicans IFO. 1385 [12] [µg/mL]",Minimal inhibitory concentration (MIC) ([1]; 4 to 48 hours) [µg/mL],Minimal inhibitory concentration (MIC) [2] [µg/mL],Minimal inhibitory concentration (MIC) ([3]; 4 to 48 hours) [µg/mL],Minimal inhibitory concentration (MIC) (Candida krusei K. 11655) [µg/mL],Minimal inhibitory concentration (MIC) [4] [µg/mL],Minimal inhibitory concentration (MIC) [5] [µg/mL],Minimal inhibitory concentration (MIC) (Candida albicans C1-2) [µg/mL],Minimal inhibitory concentration (MIC) [6] [µg/mL],Minimal inhibitory concentration (MIC) ([7]; 4 to 48 hours) [µg/mL],Minimal inhibitory concentration (MIC) ([8]; 4 to 48 hours) [µg/mL],Minimal inhibitory concentration (MIC) [9] [µg/mL],Minimal inhibitory concentration (MIC) ([10]; 4 to 48 hours) [µg/mL],Minimal inhibitory concentration (MIC) [11] [µg/mL],also measured
COc1cccc(C(=C(F)N2CCN(c3ccc(OCC4COC(Cn5ccnc5)(c5ccc(F)cc5F)O4)cc3)CC2)C(F)(F)F)c1 (mixture of isomers) [Ex. 143],>100,1.56,0.39,6.25,100,3.13,0.39,,,,,,,,,,,,,,"Minimal inhibitory concentration(MIC), A. niger A. 16404 [1]: >100 µg/mL; Minimal inhibitory concentration(MIC), A furnigatus B. 19119 [3]: 100 µg/mL; Minimal inhibitory concentration(MIC), C. albicans C1-2 (Candida albicans C1-2): >100 µg/mL; Minimal inhibitory concentration(MIC), C. albicans A. 10231 [6]: >100 µg/mL; Minimal inhibitory concentration(MIC), T. mentagrophytes A. 9129 [7]: 6.25 µg/mL; Minimal inhibitory concentration(MIC), T. mentagrophytes B. 32663 [8]: 0.78 µg/mL; Minimal inhibitory concentration(MIC), Cry. neoformans A. 34144 [10]: 3.13 µg/mL; Minimal inhibitory concentration(MIC), Cry. neoformans IFM. 40092 [13]: 0.78 µg/mL"
CCc1ccc(C=C(F)OCC2COC(Cn3cncn3)(c3ccc(Cl)cc3Cl)O2)cc1 (mixture of isomers) [Ex. 72],25.0,25.0,3.13,12.5,25.0,100,1.56,,,,,,,25.0,250,,,,,,"Minimal inhibitory concentration(MIC), A. niger A. 16404 ([1]; 4 to 48 hours): >100 µg/mL; Minimal inhibitory concentration(MIC), A furnigatus B. 19119 ([3]; 4 to 48 hours): >100 µg/mL; Minimal inhibitory concentration(MIC), T. mentagrophytes A. 9129 ([7]; 4 to 48 hours): 12.5 µg/mL; Minimal inhibitory concentration(MIC), T. mentagrophytes B. 32663 ([8]; 4 to 48 hours): 12.5 µg/mL; Minimal inhibitory concentration(MIC), Cry. neoformans A. 34144 ([10]; 4 to 48 hours): 3.13 µg/mL; Minimal inhibitory concentration(MIC), Cry. neoformans IFM. 40092 ([13]; 4 to 48 hours): 1.56 µg/mL"
CC(C)Oc1cccc(C=C(F)OCC2COC(Cn3ccnc3)(c3ccc(F)cc3F)O2)c1 (mixture of isomers) [Ex. 45],,,,,,,,100,50.0,12.5,12.5,1.56,6.25,25.0,25.0,6.25,1.56,6.25,1.56,12.5,Minimal inhibitory concentration (MIC) [12]: 0.39 µg/mL; Minimal inhibitory concentration (MIC) ([13]; 4 to 48 hours): 0.39 µg/mL

# Continued, in another order:
"Minimal inhibitory concentration(MIC), C. tropicalis A. 13803 [2] [µg/mL]","Minimal inhibitory concentration(MIC), C. krusei K. 11655 (Candida krusei K. 11655) [µg/mL]","Minimal inhibitory concentration(MIC), Cry. neoformans B. 42419 [4] [µg/mL]","Minimal inhibitory concentration(MIC), C. pseudotropicalis K. 11658 [5] [µg/mL]","Minimal inhibitory concentration(MIC), T. glabrata B. 16205 [9] [µg/mL]","Minimal inhibitory concentration(MIC), C. parapsitosis A. 7330 [11] [µg/mL]","Minimal inhibitory concentration(MIC), C. albicans IFO. 1385 [12] [µg/mL]",Minimal inhibitory concentration (MIC) ([1]; 4 to 48 hours) [µg/mL],Minimal inhibitory concentration (MIC) [2] [µg/mL],Minimal inhibitory concentration (MIC) ([3]; 4 to 48 hours) [µg/mL],Minimal inhibitory concentration (MIC) (Candida krusei K. 11655) [µg/mL],Minimal inhibitory concentration (MIC) [4] [µg/mL],Minimal inhibitory concentration (MIC) [5] [µg/mL],Minimal inhibitory concentration (MIC) (Candida albicans C1-2) [µg/mL],Minimal inhibitory concentration (MIC) [6] [µg/mL],Minimal inhibitory concentration (MIC) ([7]; 4 to 48 hours) [µg/mL],Minimal inhibitory concentration (MIC) ([8]; 4 to 48 hours) [µg/mL],Minimal inhibitory concentration (MIC) [9] [µg/mL],Minimal inhibitory concentration (MIC) ([10]; 4 to 48 hours) [µg/mL],Minimal inhibitory concentration (MIC) [11] [µg/mL],SMILES,also measured
>100,3.13,0.78,1.56,>100,3.13,3.13,,,,,,,,,,,,,,Cc1ccc(C(=C(F)N2CCN(c3ccc(OCC4COC(Cn5ccnc5)(c5ccc(Cl)cc5Cl)O4)cc3)CC2)C(F)(F)F)cc1C (mixture of isomers) [Ex. 129],"Minimal inhibitory concentration(MIC), A. niger A. 16404 ([1]; 4 to 48 hours): >100 µg/mL; Minimal inhibitory concentration(MIC), A furnigatus B. 19119 ([3]; 4 to 48 hours): >100 µg/mL; Minimal inhibitory concentration(MIC), C. albicans C1-2 (Candida albicans C1-2): >100 µg/mL; Minimal inhibitory concentration(MIC), C. albicans A. 10231 [6]: >100 µg/mL; Minimal inhibitory concentration(MIC), T. mentagrophytes A. 9129 ([7]; 4 to 48 hours): 12.5 µg/mL; Minimal inhibitory concentration(MIC), T. mentagrophytes B. 32663 ([8]; 4 to 48 hours): 3.13 µg/mL; Minimal inhibitory concentration(MIC), Cry. neoformans A. 34144 ([10]; 4 to 48 hours): 0.78 µg/mL; Minimal inhibitory concentration(MIC), Cry. neoformans IFM. 40092 ([13]; 4 to 48 hours): 0.39 µg/mL"
,,,,,,,25.0,100,3.13,>100,0.78,100,25.0,12.5,3.13,1.56,6.25,1.56,>100,Cc1ccc(C(=C(F)OCC2COC(Cn3ccnc3)(c3ccc(F)cc3F)O2)C(F)(F)F)cc1 (mixture of isomers) [Ex. 54],Minimal inhibitory concentration (MIC) [12]: 0.78 µg/mL; Minimal inhibitory concentration (MIC) ([13]; 4 to 48 hours): ≦0.10 μg/ml
>100,>100,3.13,>100,100,>100,3.13,,,,,,,,,,,,,,FC(Oc1ccc(OCC2COC(Cn3ccnc3)(c3ccc(Cl)cc3Cl)O2)cc1)=C(c1cccc(C(F)(F)F)c1)C(F)(F)F (mixture of isomers) [Ex. 96],"Minimal inhibitory concentration(MIC), A. niger A. 16404 ([1]; 4 to 48 hours): >100 µg/mL; Minimal inhibitory concentration(MIC), A furnigatus B. 19119 ([3]; 4 to 48 hours): 100 µg/mL; Minimal inhibitory concentration(MIC), C. albicans C1-2 (Candida albicans C1-2): 100 µg/mL; Minimal inhibitory concentration(MIC), C. albicans A. 10231 [6]: 100 µg/mL; Minimal inhibitory concentration(MIC), T. mentagrophytes A. 9129 ([7]; 4 to 48 hours): 12.5 µg/mL; Minimal inhibitory concentration(MIC), T. mentagrophytes B. 32663 ([8]; 4 to 48 hours): 6.25 µg/mL; Minimal inhibitory concentration(MIC), Cry. neoformans A. 34144 ([10]; 4 to 48 hours): 3.13 µg/mL; Minimal inhibitory concentration(MIC), Cry. neoformans IFM. 40092 ([13]; 4 to 48 hours): 0.39 µg/mL"
,,,,,,,100,100,12.5,>100,1.56,100,12.5,12.5,6.25,3.13,6.25,1.56,>100,COc1cccc(C(=C(F)OCC2COC(Cn3ccnc3)(c3ccc(F)cc3F)O2)C(F)(F)F)c1 (mixture of isomers) [Ex. 60],Minimal inhibitory concentration (MIC) [12]: 0.78 µg/mL; Minimal inhibitory concentration (MIC) ([13]; 4 to 48 hours): 0.20 µg/mL
,,,,,,,100,100,100,>100,1.56,>100,25.0,25.0,25.0,6.25,25.0,1.56,>100,FC(OCC1COC(Cn2ccnc2)(c2ccc(Cl)cc2Cl)O1)=C(c1cccs1)C(F)(F)F (mixture of isomers) [Ex. 35],Minimal inhibitory concentration (MIC) [12]: 1.56 µg/mL; Minimal inhibitory concentration (MIC) ([13]; 4 to 48 hours): 0.78 µg/mL
